{"source": "patent KR20230168537A", "about": "“유파틸린을 포함하는 대장암 예방 또는 치료용 약학적 조성물” (고려대학교 산학협력단, priority 2022, dated 2023)", "format_in_all_cases": "cell-based", "key": {"HCT116 [1]": {"tested_on": "HCT116", "test": "MTT cell viability assay"}, "HT29 [2]": {"tested_on": "HT29", "test": "MTT cell viability assay"}, "BAK": {"tested_on": "BAK", "test": "Western blot, apoptosis-related protein"}, "cytochrome c": {"tested_on": "cytochrome c", "test": "Western blot, apoptosis-related protein"}, "HCT116 [3]": {"tested_on": "HCT116", "test": "BrdU cell proliferation assay", "settings": "Homo sapiens, HCT-116; HCT116, 25 μM or more, 48 h; read-out: reduction of cell proliferation"}, "HT29 [4]": {"tested_on": "HT29", "test": "BrdU cell proliferation assay", "settings": "Homo sapiens, HT-29; HT29, 50 μM or more, 48 h; read-out: reduction of cell proliferation"}, "HCT116 [5]": {"tested_on": "HCT116", "test": "Spheroid culture (hanging drop)", "settings": "HCT116, dose-dependent"}, "HT29 [6]": {"tested_on": "HT29", "test": "Spheroid culture (hanging drop)", "settings": "HT29, 50 μM"}, "HCT116 [7]": {"tested_on": "HCT116", "test": "Annexin V/PI apoptosis assay", "settings": "Homo sapiens, HCT-116, 48 h, read-out: increase in apoptosis versus control"}, "HT29 [8]": {"tested_on": "HT29", "test": "Annexin V/PI apoptosis assay", "settings": "Homo sapiens, HT-29, 48 h, read-out: increase in apoptosis versus control"}, "HCT116 [9]": {"tested_on": "HCT116", "test": "TUNEL assay, DNA fragmentation", "settings": "HCT116, 48 h"}, "HT29 [10]": {"tested_on": "HT29", "test": "TUNEL assay, DNA fragmentation", "settings": "HT29, 48 h"}, "HCT116 [11]": {"tested_on": "HCT116", "test": "Mitochondrial membrane potential (JC-1)", "settings": "48 h"}, "HT29 [12]": {"tested_on": "HT29", "test": "Mitochondrial membrane potential (JC-1)", "settings": "HT29, 100 μM, 48 h"}, "BCL-xL": {"tested_on": "BCL-xL", "test": "Western blot, apoptosis-related protein", "settings": "colorectal cancer cells, 24 h"}, "[13]": {"tested_on": "colorectal cancer cells (대장암세포)", "test": "Cell cycle analysis (PI, flow cytometry)", "settings": "100 μM, 48 h"}, "HCT116 [14]": {"tested_on": "HCT116", "test": "ROS production (DCFH-DA)"}, "HT29 [15]": {"tested_on": "HT29", "test": "ROS production (DCFH-DA)"}, "AKT": {"tested_on": "AKT", "test": "Western blot, signalling protein phosphorylation", "settings": "HCT116 and HT29 cells"}, "P70S6K": {"tested_on": "P70S6K", "test": "Western blot, signalling protein phosphorylation", "settings": "HCT116 and HT29 cells"}, "S6": {"tested_on": "S6", "test": "Western blot, signalling protein phosphorylation", "settings": "HCT116 and HT29 cells"}, "ERK": {"tested_on": "ERK", "test": "Western blot, signalling protein phosphorylation", "settings": "HCT116 and HT29 cells"}, "P90RSK": {"tested_on": "P90RSK", "test": "Western blot, signalling protein phosphorylation", "settings": "HCT116 and HT29 cells"}, "P38": {"tested_on": "P38", "test": "Western blot, signalling protein phosphorylation", "settings": "HCT116 and HT29 cells"}, "JNK": {"tested_on": "JNK", "test": "Western blot, signalling protein phosphorylation", "settings": "HCT116 and HT29 cells"}, "IRE1α": {"tested_on": "IRE1α", "test": "Western blot, ER stress-related protein"}, "eIF2α": {"tested_on": "eIF2α", "test": "Western blot, ER stress-related protein", "settings": "HCT116"}, "GRP78": {"tested_on": "GRP78", "test": "Western blot, ER stress-related protein", "settings": "HCT116"}, "LC3BⅡ": {"tested_on": "LC3BⅡ", "test": "Western blot, autophagy-related protein"}, "ATG5": {"tested_on": "ATG5", "test": "Western blot, autophagy-related protein", "settings": "HT29"}, "P62": {"tested_on": "P62", "test": "Western blot, autophagy-related protein", "settings": "HT29"}, "HCT116 [16]": {"tested_on": "HCT116", "test": "Transwell invasion assay", "settings": "Homo sapiens, HCT-116; HCT116, 50 μM, 16 h; read-out: reduction in number of cells passing through Transwell"}, "HT29 [17]": {"tested_on": "HT29", "test": "Transwell invasion assay", "settings": "Homo sapiens, HT-29; HT29, 50 μM, 16 h; read-out: reduction in number of cells passing through Transwell"}, "HCT116 [18]": {"tested_on": "HCT116", "test": "Cell migration assay", "settings": "HCT116, 24 h"}, "HT29 [19]": {"tested_on": "HT29", "test": "Cell migration assay", "settings": "HT29, 24 h"}}, "data": [{"compound": "O=c1[nH]cc(F)c(=O)[nH]1", "note": "[5-FU, 5-fluorouracil]", "values": [{"measurement": "cell viability", "setting": "HCT116 [1]; HCT116, anticancer drug 5 μM alone", "value": 74.2, "unit": "%"}, {"measurement": "cell viability", "setting": "HCT116 [1]; HCT116, anticancer drug 10 μM alone", "value": 71.6, "unit": "%"}, {"measurement": "cell viability", "setting": "HCT116 [1]; HCT116, anticancer drug 20 μM alone", "value": 66.2, "unit": "%"}, {"measurement": "cell viability", "setting": "HCT116 [1]; HCT116, anticancer drug 40 μM alone", "value": 55.4, "unit": "%"}, {"measurement": "cell viability", "setting": "HT29 [2]; HT29, anticancer drug 5 μM alone", "value": 69.0, "unit": "%"}, {"measurement": "cell viability", "setting": "HT29 [2]; HT29, anticancer drug 10 μM alone", "value": 64.1, "unit": "%"}, {"measurement": "cell viability", "setting": "HT29 [2]; HT29, anticancer drug 20 μM alone", "value": 56.5, "unit": "%"}, {"measurement": "cell viability", "setting": "HT29 [2]; HT29, anticancer drug 40 μM alone", "value": 50.9, "unit": "%"}, {"measurement": "BAK expression", "setting": "BAK; 5-FU-resistant HCT116", "value": "발현에는 영향을 미치지 못한"}, {"measurement": "cytochrome c expression", "setting": "cytochrome c; 5-FU-resistant HCT116", "value": "발현에는 영향을 미치지 못한"}]}, {"compound": "CCc1c2c(nc3ccc(OC(=O)N4CCC(N5CCCCC5)CC4)cc13)-c1cc3c(c(=O)n1C2)COC(=O)[C@]3(O)CC", "note": "[Irinotecan]", "values": [{"measurement": "cell viability", "setting": "HCT116 [1]; human, hct116 cells, 5 µM", "value": 66.6, "unit": "%"}, {"measurement": "cell viability", "setting": "HCT116 [1]; human, hct116 cells, 10 µM", "value": 52.0, "unit": "%"}, {"measurement": "cell viability", "setting": "HCT116 [1]; human, hct116 cells, 20 µM", "value": 43.9, "unit": "%"}, {"measurement": "cell viability", "setting": "HCT116 [1]; human, hct116 cells, 40 µM", "value": 28.9, "unit": "%"}, {"measurement": "cell viability", "setting": "HT29 [2]; human, ht29 cells, 5 µM", "value": 81.4, "unit": "%"}, {"measurement": "cell viability", "setting": "HT29 [2]; human, ht29 cells, 10 µM", "value": 60.9, "unit": "%"}, {"measurement": "cell viability", "setting": "HT29 [2]; human, ht29 cells, 20 µM", "value": 50.1, "unit": "%"}, {"measurement": "cell viability", "setting": "HT29 [2]; human, ht29 cells, 40 µM", "value": 30.1, "unit": "%"}]}, {"compound": "COc1ccc(-c2cc(=O)c3c(O)c(OC)c(O)cc3o2)cc1OC", "note": "[유파틸린, 5,7-Dihydroxy-3', 4', 6-trimethoxyflavone]", "values": [{"measurement": "inhibition at 25 µM", "setting": "HCT116 [3]", "value": "≥ 50", "unit": "%"}, {"measurement": "inhibition at 50 µM", "setting": "HT29 [4]", "value": "≥ 50", "unit": "%"}, {"measurement": "reduction of cell viability", "setting": "HCT116 [1]; HCT116, 25 μM or more", "value": "≥ 50", "unit": "%"}, {"measurement": "reduction of cell viability", "setting": "HT29 [2]; HT29, 100 μM or more", "value": "≥ 50", "unit": "%"}, {"measurement": "spheroid density", "setting": "HCT116 [5]", "value": "용량의존적으로 스페로이드의 전체 면적 및 밀도를 감소"}, {"measurement": "spheroid total area", "setting": "HCT116 [5]", "value": "용량의존적으로 스페로이드의 전체 면적 및 밀도를 감소"}, {"measurement": "spheroid density", "setting": "HT29 [6]", "value": "유의적으로 감소"}, {"measurement": "fold induction at 50 µM", "setting": "HCT116 [7]; HCT116, 50 μM", "value": 4.4}, {"measurement": "fold induction at 100 µM", "setting": "HCT116 [7]; HCT116, 100 μM", "value": 13.2}, {"measurement": "fold induction at 50 µM", "setting": "HT29 [8]; HT29, 50 μM", "value": 1.6}, {"measurement": "fold induction at 100 µM", "setting": "HT29 [8]; HT29, 100 μM", "value": 1.7}, {"measurement": "frequency of DNA fragmentation", "setting": "HCT116 [9]", "value": "DNA 단편화의 빈도를 증가"}, {"measurement": "frequency of DNA fragmentation", "setting": "HT29 [10]", "value": "DNA 단편화의 빈도를 증가"}, {"measurement": "decrease in mitochondrial membrane potential", "setting": "HCT116 [11]; HCT116, 50 μM", "value": 2.0, "unit": "fold"}, {"measurement": "decrease in mitochondrial membrane potential", "setting": "HCT116 [11]; HCT116, 100 μM", "value": 2.6, "unit": "fold"}, {"measurement": "decrease in mitochondrial membrane potential", "setting": "HT29 [12]", "value": 1.5, "unit": "fold"}, {"measurement": "BCL-xL expression", "setting": "BCL-xL", "value": "발현을 저해"}, {"measurement": "BAK expression", "setting": "BAK; colorectal cancer cells, 24 h", "value": "발현을 증가"}, {"measurement": "cytochrome c expression", "setting": "cytochrome c; colorectal cancer cells, 24 h", "value": "발현을 증가"}, {"measurement": "proportion of S phase", "setting": "[13]", "value": "S기의 비율을 감소"}, {"measurement": "proportion of SubG1 phase", "setting": "[13]", "value": "유의적으로 증가"}, {"measurement": "DCF fluorescence", "setting": "HCT116 [14]; HCT116", "value": "형광을 증가"}, {"measurement": "fold induction at 50 µM", "setting": "HCT116 [14]; Homo sapiens, HCT-116, HCT116, 50 μM, 1 h, read-out: increase in ROS production", "value": 15.8}, {"measurement": "DCF fluorescence", "setting": "HT29 [15]; HT29", "value": "형광을 증가"}, {"measurement": "fold induction at 50 µM", "setting": "HT29 [15]; Homo sapiens, HT-29, HT29, 50 μM, 1 h, read-out: increase in ROS production", "value": 5.6}, {"measurement": "AKT phosphorylation", "setting": "AKT", "value": "인산화를 억제"}, {"measurement": "P70S6K phosphorylation", "setting": "P70S6K", "value": "인산화를 억제"}, {"measurement": "S6 phosphorylation", "setting": "S6", "value": "인산화를 억제"}, {"measurement": "ERK phosphorylation", "setting": "ERK", "value": "인산화를 유도"}, {"measurement": "P90RSK phosphorylation", "setting": "P90RSK", "value": "인산화를 유도"}, {"measurement": "P38 phosphorylation", "setting": "P38", "value": "인산화 역시 증가"}, {"measurement": "JNK phosphorylation", "setting": "JNK", "value": "인산화 역시 증가"}, {"measurement": "IRE1α expression", "setting": "IRE1α; HCT116", "value": "발현을 증가"}, {"measurement": "IRE1 expression", "setting": "IRE1α; HT29, only IRE1 increased among the ER stress proteins", "value": "IRE1의 발현만 증가"}, {"measurement": "phosphorylated eIF2α expression", "setting": "eIF2α", "value": "발현을 증가"}, {"measurement": "GRP78 expression", "setting": "GRP78", "value": "발현을 증가"}, {"measurement": "LC3BⅡ expression", "setting": "LC3BⅡ; HCT116", "value": "발현을 증가"}, {"measurement": "LC3BⅡ expression", "setting": "LC3BⅡ; HT29", "value": "발현을 증가"}, {"measurement": "ATG5 expression", "setting": "ATG5", "value": "발현을 증가"}, {"measurement": "P62 expression", "setting": "P62", "value": "발현을 증가"}, {"measurement": "inhibition at 50 µM", "setting": "HCT116 [16]", "value": 97.2, "unit": "%"}, {"measurement": "inhibition at 50 µM", "setting": "HT29 [17]", "value": 42, "unit": "%"}, {"measurement": "cell migration", "setting": "HCT116 [18]", "value": "세포 이주성을 현저하게 감소"}, {"measurement": "cell migration", "setting": "HT29 [19]", "value": "세포 이주성을 현저하게 감소"}]}]}
